Reference: patent US9328142B2, “Lipopeptide inhibitors of RAS oncoproteins” (The United States of America, as represented by The …, priority 2011, dated 2016)

Columns and labels:
[1] = test system: A549 human lung cancer cell line harboring constitutively active Ras mutant; assay: MTT growth inhibition assay, A549; format: cell-based; settings: A549, MTT
Description: (§1) MCF-7 (breast cancer), T47D (breast cancer), Colo 205 (colon cancer), JM-1 (rat hepatoma), Sk Mel-2 (melanoma), PLC (human hepatoma), and HepG2 (human hepatoma) were obtained from American Type Cell Culture Collection. MCF-7 cells were grown in RPMI medium supplemented with 10% Fetal Bovine Serum. The remaining cell lines were grown in DMEM medium supplemented with 10% Fetal Bovine Serum. For the assay, cells were seeded into 96 well plates in medium containing 1% Fetal Bovine Serum and 100 μL of a cell suspension containing 5000 cells per well were used for each well. Cell growth was evaluated utilizing MTT ((3-(4,5-Dimethylthiazol-2-yl)-2,5-diphenyltetrazolium). The absorbance of the wells at 544 nm was determined by a FLUOstar/POLARstar Galaxy (BMG Lab Technologies GmbH) microplate reader.
(§2) The growth inhibitory activity of compounds was compared using the A549 human lung cancer cell line harboring constitutively active G12D Ras mutant with the help of an MTT assay. […] Stepwise extensions and truncations confirmed that the peptide had the optimal length (see Table 1).
(§3) The growth inhibitory activity of compounds was compared using the A549 human lung cancer cell line harboring constitutively active G12D Ras mutant with the help of an MTT assay.

[2] = test system: A549 human lung cancer cell line harboring constitutively active G12D Ras mutant; assay: MTT growth inhibition assay, A549; format: cell-based
Description: as §1, §2, §3

[3] = test system: Ras-dependent cancer cells (H358, SKBR3, SKOV3, ID8, MPR-178); assay: MTT growth assay on Ras-dependent cancer cells; format: cell-based, human, murine; settings: 48 hours, 1% FBS
Description: Ras-dependent cancer cells (H358 human lung cancer cells, SKBR3 human breast cancer cells, SKOV3 human ovarian cancer cells, ID8 murine ovarian cancer cells, and MPR-178 murine prostate cancer cells) were grown in DMEM medium containing 1% FBS and exposed to varying concentrations of Ras inhibitors (kR-H6-48 and HR-1) for 48 hours. Cell growth was evaluated utilizing an MTT ((3-(4,5-Dimethylthiazol-2-yl)-2,5-diphenyltetrazolium) assay. The absorbance of the wells at 544 nm was determined by a FLUOstar/POLARstar Galaxy (BMG Lab Technologies GmbH, Ortenberg, Germany) microplate reader. The assays were performed on untreated (control) and test cells. Cellular responses were calculated from the data using the following formula: 100×[(T−T0)/(C−T0)] for T>T0 and 100×[(T−T0)/T0] for T<T0, wherein T0 corresponds to cell density at the time of drug addition.

[4] = test system: activated (GTP-bound) Ras in H358 human lung cancer cells; assay: Raf-RBD pull-down of active (GTP-bound) Ras; format: cell-based; settings: 5 μM, varying exposure times
Description: H358 human lung cancer cells were grown in 6-well plates in DMEM medium containing 10% FBS. When the cells were about 70% confluent, the medium was replaced with DMEM containing 1% FBS. Two hours later, Ras inhibitors (kR-H6-48, HR-1, kR-4A-4, or kR-4B-2) were added to provide a final concentration of 5 μM.
After varying exposure times, the cells were rinsed with PBS and lysed. The lysates were cleared by centrifugation, incubated with immobilized Raf-RBD beads (which bind Ras) and analyzed by Western blot using manufacturer's protocols (Cytoskeleton, Inc., Denver, Colo.; Catalog No. BK008). The bands corresponding to active (GTP-bound) Ras were quantified with the help of MIPAV software.

[5] = test system: H358 human lung cancer cells with mutated K-Ras; assay: H358 tumor growth in nude mice; format: in vivo
From the text: 2×10^6 H358 human lung cancer cells with mutated K-Ras were implanted subcutaneously (s.c.) in nude mice.

[6] = test system: DPPC bilayers containing 5% DPPE stabilized by MSP1 scaffold protein (nanodiscs); assay: SPR membrane binding to phospholipid bilayer nanodiscs
Description: Dipalmitoylphosphatidylcholine (DPPC) bilayers containing 5% dipalmitoyldiphosphatidylethanolamine (DPPE) stabilized by MSP1 scaffold protein were prepared. […] The preparation procedure involved mixing DPPC lipids with MSP1 at a 90:1 molar ratio in the presence of 100 mM cholate. Cholate was removed by slow dialysis. The assembled nanodiscs were purified by size-exclusion chromatography on a calibrated Superdex 200 column and immobilized on a surface plasmon resonance (SPR) sensor chip.
The presence of a primary amine group in DPPE provided a convenient site for cross-linking of nanodiscs to an SPR sensor chip. The noncross-linked dextran in the sample and reference cells was blocked by the coupling reagent. Four different peptides were used to study membrane binding by SPR. […] The HVR peptide lacks post-translational modifications present in K-Ras4B. The second peptide is the HVR peptide conjugated to S-farnesyl L-cysteine methyl ester via a bifunctional cross-linker Sulfosuccinimidyl-4-(N-maleimidomethyl)cyclohexane-1-carboxylate (Sulfo-SMCC) (Pierce). The other two peptides were kR-4A-C1 and kR-4B-C1.
In this situation determination of true dissociation constants was not feasible. Instead, the data were analyzed using the Hill equation. The Hill coefficient describes the degree of binding cooperativity.

[7] = test system: human lung tumor cell lines (A549, H460, and H1944) and a mouse astrocytoma cell line (187436 tu2) expressing mutated K-Ras; assay: Growth inhibition in cell lines expressing mutated K-Ras (FIGS. 2 and 3); format: cell-based; settings: A549, H460, H1944, 187436 tu2
From the text: The cell line was generated from astrocytoma developed in a transgenic mouse harboring a G12D mutation in K-Ras and inactivation of the Rb gene.

HCC15 cells [8] = assay: Cell invasion, Boyden Chambers; format: cell-based; settings: IC25 concentration
Description: Cell invasion assays were performed using the BD Biocoat Matrigel Invasion Chambers in accordance with the manufacturer's protocol. Cells (1×10^5/mL) were seeded onto 12-well cell culture chamber using inserts with 8 μm pore size polycarbonate membrane over a thin layer of Matrigel Basement Membrane Matrix without phenol red (BD Biosciences) diluted at 1:100 in PBS. Following incubation of the plates for 48 hours at 37° C., cells that invaded through the Matrigel and migrated to the lower surface of the membrane were stained with Giemsa solution, counted under the microscope in at least 10 different fields, and photographed. Three wells were examined for each condition and cell type, and the experiments were repeated in triplicate.
(§4) The rate of migration and invasion was determined using Boyden Chambers (Millipore) in accordance with the manufacturer's protocol.

HCC15 cells [9] = assay: Wound closure assay; format: cell-based
HCC15 cells [10] = assay: Cell migration, Boyden Chambers; format: cell-based; settings: IC25 concentration
Description: as §4

K-Ras in H2592 cells = K-Ras in H2592 cells (Homo sapiens, UniProt P01116); settings: GI50 concentrations, 18 hours
From the text: Goat anti-mouse antibodies with Alexa Fluor TM 594 (red) were used to visualize the anti-Ras mouse mAb.

[11] = test system: Ras protein in H2009 and H2592 cells; assay: Western blot of Ras protein amount in cancer cells; format: cell-based; settings: 0-3.0 μM, 18 hours
Description: A further experiment was undertaken to determine the effect of analogs of helix 6 and HVR on the amount of K-Ras protein in cancer cells. H2009 (lung adenocarcinoma cells) and H2592 (plural mesothelioma cells) were exposed to varying concentrations (0-3.0 μM) of kR-4A-3, kR-4B-3, or kR-H6-3 for 18 hours. The cells then were lysed and the lysate was analyzed by Western blot using anti-Ras mAb (Cell Biolabs, Inc.).

Substance | GI50 ([1]; Table 1 helix 6 derivatives) | further results
Ac-DGTQGLNLNGLPK-e-Pal [NR-1] |  | GI50 ([1]; Table 2 HVR derivatives): > 10000 nM
Ac-RYQRIQRVLTYFAK-e-Pal (all D) [kR-H6-30] | 10 ± 5 nM | additional fold reduction in GI50 ([2]; Glu162 replaced with Gln): 1.7 fold
Pal-e-KFYTLVREIRQYR [kR-H6-12] | 180 nM | 
Ac-ESGPGLNLNSLNKK-e-Pal [HR-1] |  | growth of Ras-dependent cancer cells (cell number, percent of control) [3]: growth inhibition of Ras-dependent cancer cells; GTP-bound Ras (fraction of control) [4]: reduction in activated (GTP-bound) Ras; GI50 ([1]; Table 2 HVR derivatives): 250 nM
Pal-Aib-YQRIQRVLTYF (all D) [kR-H6-35] | 450 ± 50 nM | 
Ac-KKKKSKTKK-e-Pal [kR-4B-7] |  | GI50 ([1]; Table 2 HVR derivatives): 2000 nM
Ac-KKKSKTKK-e-Pal [kR-4B-8] |  | tumor weight at the time of sacrifice ([5]; 10 mg/kg s.c. every second day for 20 days, control 1.21 g): 0.35 g; tumor growth ([5]; 10 mg/kg s.c. near the tumor every second day for 20 days): abolished the growth; GI50 ([1]; Table 2 HVR derivatives): 2300 nM
HVR peptide: represents the hypervariable region of K-Ras-4B, residues 165 through 183; lacks post-translational modifications (QYRLKKISKEEKTPGCVKI; K-Ras4B; UniProt P01116 165-183, looked up, fragment) [reference compound] |  | Hill coefficient (membrane binding cooperativity) ([6]; Hill equation): 1.106±0.001
Pal-RYQRIQRVLTYFA (all D) [kR-H6-19] | > 1000 nM | 
Lau-YQRVQRVLTYFA (all D) [kR-H6-47] | 1 ± 1 nM | 
Pal-e-KAFYTLVREIRQY [kR-H6-10] | 300 nM | 
Oct-YQRVQRVLTYF (all D) [kR-H6-50] | 4 ± 1 nM | 
Ac-KLNSKDGKKKKKKSKTKK-e-Pal [kR-4B-2] |  | GTP-bound Ras (fraction of control) [4]: reduction in activated (GTP-bound) Ras
Lau-YQRVQRVLTYW (all D) [kR-H6-39] | 90 ± 15 nM | 
Ac-RYQRIERVLTYFAK-e-Pal (all D) [kR-H6-23] | 25 ± 10 nM | growth inhibition (cell number, percent of control) [7]: growth inhibition; fold more toxic to cancer cells than kR-H6-6 ([2]; retroinverso version versus kR-H6-6): 10 fold
Pal-KTKSKKKKK-NH2 All-D [kR-4B-6] |  | GI50 ([1]; Table 2 HVR derivatives): 1700 nM
Pal-RYQRIQRVLTYF (all D) [kR-H6-20] | 250 nM | 
Cap-YQRVQRVLTYW (all D) [kR-H6-41] | 180 ± 40 nM | 
Pal-KVEDAFYTLVREIRQYR [kR-H6-4] | > 5000 nM | 
Pal-YQRKQRVLTYF (all D) [kR-H6-14] | 40 nM | 
Pal-e-KAFYTLVREIRKHK [kR-H6-18] | > 1000 nM | 
Ac-AFYTLVREIRQYRK (e-Pal) [kR-H6-8] | 5000 nM | 
Ac-YQRIQRVLTYFAK-e-Pal (all D) [kR-H6-33] | 4.5 ± 1 nM | 
Ac-TPGLNVKIKKK-e-Pal [kR-4A-6] |  | GI50 ([1]; Table 2 HVR derivatives): > 10000 nM
Pal-e-KAFYTLVRQIRQYRL [kR-H6-28] | 250 ± 50 nM | 
Ac-YRLKKISKEEKTPGK-e-Pal [kR-4A-2] |  | GI50 ([1]; Table 2 HVR derivatives): 1650 nM
Pal-YQRIQRVLTYFA (all D) [kR-H6-21] | 30 nM | 

Substance | GI50 ([1]; Table 1 helix 6 derivatives) | further results
Ac-PGLNVKIKKK-e-Pal [kR-4A-7] |  | GI50 ([1]; Table 2 HVR derivatives): > 10000 nM
Ac-RYQRIQRVLTYFK-e-Pal (all D) [kR-H6-32] | 10 ± 4 nM | 
Ac-YQRKQRVLTYFK-e-Pal (all D) [kR-H6-13] | 60 nM | 
Pal-YQRVQRVLTYF (all D) [kR-H6-36] | 10 ± 5 nM | 
Pal-e-KAFYTLVREIRQYRL [kR-H6-27] | 280 ± 30 nM | 
Ac-KEKLNSKDGKKKKKKSKTKK-e-Pal [kR-4B-1] |  | cell invasion (average number of cells migrated) (HCC15 cells [8]): inhibition of HCC15 cell invasion; cooperative interactions with membrane lipids ([6]; phospholipid bilayers): showed the best cooperative interactions with membrane lipids; cell motility (average closure) (HCC15 cells [9]): inhibition of HCC15 cell motility; cell migration (average number of cells migrated) (HCC15 cells [10]): inhibition of NCC15 cell migration; GI50 ([1]; Table 2 HVR derivatives): 1450 nM
Cap-YQRVQRVLTYF (all D) [kR-H6-49] | 0.8 nM | 
Pal-YQRIQRVLTYF (all D) [kR-H6-34] | 18 ± 5 nM | 
Ac-AFYTLVREIRQYR [kR-H6-17] | > 5000 nM | 
Lau-YKRVQRVLTYF (all D) [kR-H6-42] | 300 ± 50 nM | 
Ac-YQRIQRVLTYFK-e-Pal (all D) [kR-H6-11] | 10 nM | 
Ac-GLNVKIKKK-e-Pal [kR-4A-8] |  | GI50 ([1]; Table 2 HVR derivatives): > 10000 nM
Ac-RLKKISKEEKTPGSVKIKKK-e-Pal [kR-4A-1] |  | cell invasion (average number of cells migrated) (HCC15 cells [8]): inhibition of HCC15 cell invasion; cell motility (average closure) (HCC15 cells [9]): inhibition of HCC15 cell motility; cell migration (average number of cells migrated) (HCC15 cells [10]): inhibition of NCC15 cell migration; GI50 ([1]; Table 2 HVR derivatives): 3100 nM
Lau-HQRVQRVLTYF (all D) [kR-H6-43] | 300 ± 50 nM | 
Ac-KTPGAVKIKKK-e-Pal [kR-4A-5] |  | GI50 ([1]; Table 2 HVR derivatives): 5000 nM
Ac-DAFYTLVREIRQYRK (e-Pal) [kR-H6-9] | 500 nM | 
Lau-YQRVQRVLTYF (all D) [kR-H6-38] | 15 nM | 
Myr-YQRVQRVLTYW (all D) [kR-H6-40] | 20 ± 10 nM | 
Lau-WQRVQRVLTYF (all D) [kR-H6-44] | 1 ± 1 nM | 
Ac-Doa-VEDAFYTLVREIRQYR [kR-H6-5] | 3300 nM | 
Pal-LRYQRIERVLTYFADEV (all D) [kR-H6-2] | 300 nM | 
Ac-LRYQRIQRVLTYFAK-e-Pal (all D) [kR-H6-31] | 25 ± 10 nM | 
Ac-KTPGLNVKIKKK-e-Pal [kR-4A-4] |  | growth inhibition (cell number, percent of control) [7]: growth inhibition; GTP-bound Ras (fraction of control) [4]: reduction in activated (GTP-bound) Ras; GI50 ([1]; Table 2 HVR derivatives): 700 nM
Ac-VEDAFYTLVREIRQYR [kR-H6-16] | > 5000 nM | 
Ac-VEDAFYTLVREIRQYRK (e-Pal) [kR-H6-7] | 2700 nM | 
e-Pal-KRYQRIERVLTYFADEV (all D) [kR-H6-3] | > 5000 nM | Ras protein levels by immunostaining (K-Ras in H2592 cells): reduction in protein levels; pattern of K-Ras distribution (K-Ras in H2592 cells): lack of characteristic punctuate pattern of K-Ras distribution; amount of Ras protein [11]: reduced the amount of Ras protein in lung cancer cells in a concentration-dependent manner
Pal-RYQRIERVLTYFADEV (all D) [kR-H6-1] | 1350 nM | 
